Results reported in PubChem BioAssay AID248 (DTP/NCI, 2004).
Values joined by “and” are separate entries in the source; they are usually repeats but may differ in a detail not shown here. Equal entries are not always repeated. Toxic doses and inconclusive results are not listed. Cut-off read from the data, not from the text of the source: active = T/C of 150% or more; inactive = T/C below 125%.

Test system: L1210 leukemia ip in BDF1 mice, survival T/C
Assay: NCI In Vivo Anticancer Drug Screen. Data for tumor model L1210 Leukemia (intraperitoneal) in B6D2F1 (BDF1) mice
Conditions: endpoint: mean survival time, higher = longer survival
Summary of the method: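 Tumor cells were implanted, animals were treated, and survival was followed. The result divides the treated measurement by the vehicle-control measurement.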

[1] = dose: 50.0 mg/kg/injection, schedule: Q01DX009 (ip), vehicle: Klucel (hydroxypropylcellulose) (HPC)
[2] = dose: 100.0 mg/kg/injection, schedule: Q01DX009 (ip), vehicle: Klucel (hydroxypropylcellulose) (HPC)
[3] = dose: 100.0 mg/kg/injection, schedule: Q04DX003 (ip), vehicle: Klucel (hydroxypropylcellulose) (HPC)
[4] = dose: 200.0 mg/kg/injection, schedule: Q04DX003 (ip), vehicle: Klucel (hydroxypropylcellulose) (HPC)
[5] = dose: 100.0 mg/kg/injection, schedule: Q01DX001 (ip), vehicle: saline
[6] = dose: 200.0 mg/kg/injection, schedule: Q01DX001 (ip), vehicle: saline
[7] = dose: 400.0 mg/kg/injection, schedule: Q01DX001 (ip), vehicle: saline
[8] = dose: 400.0 mg/kg/injection, schedule: Q04DX003 (ip), vehicle: Klucel (hydroxypropylcellulose) (HPC)
[9] = dose: 200.0 mg/kg/injection, schedule: Q01DX009 (ip), vehicle: Klucel (hydroxypropylcellulose) (HPC)
[10] = dose: 400.0 mg/kg/injection, schedule: Q01DX009 (ip), vehicle: Klucel (hydroxypropylcellulose) (HPC)

Measured: T/C

CC(NC(=O)NCCCl)c1ccco1 (centres undefined)
inactive: dose: 6.25 mg/kg/injection, schedule: Q01DX009 (ip), vehicle: Klucel (hydroxypropylcellulose) (HPC) 104 % of control | dose: 12.5 mg/kg/injection, schedule: Q01DX009 (ip), vehicle: Klucel (hydroxypropylcellulose) (HPC) 98 % of control | dose: 25.0 mg/kg/injection, schedule: Q01DX009 (ip), vehicle: Klucel (hydroxypropylcellulose) (HPC) 109 % of control | [1] 114 % of control | [2] 106 % of control | [3] 101 % of control | [4] 93 % of control

O=[N+]([O-])c1ccc(N/N=C(\Oc2ccccc2)c2ccc([N+](=O)[O-])cc2)cc1
inactive: dose: 100.0 mg/kg/injection, schedule: Q04DX003 (ip), vehicle: saline with Tween-80 94 % of control | dose: 200.0 mg/kg/injection, schedule: Q04DX003 (ip), vehicle: saline with Tween-80 90 % of control

CCCCN(C)N=Nc1ccc(OCC(=O)NN)cc1
inactive: dose: 10.0 mg/kg/injection, schedule: Q01DX Z (ip), vehicle: carboxymethylcellulose (CMC) 93 % of control | dose: 15.0 mg/kg/injection, schedule: Q01DX Z (ip), vehicle: carboxymethylcellulose (CMC) 96 % of control | dose: 20.0 mg/kg/injection, schedule: Q01DX Z (ip), vehicle: carboxymethylcellulose (CMC) 91 % of control | dose: 30.0 mg/kg/injection, schedule: Q01DX Z (ip), vehicle: carboxymethylcellulose (CMC) 114 % of control | dose: 60.0 mg/kg/injection, schedule: Q01DX Z (ip), vehicle: carboxymethylcellulose (CMC) 95 % of control

O=C1C(O)C23CC=CCC12CC=CC3 (centres undefined)
inactive: [5] 116 % of control | [6] 105 % of control | [7] 100 % of control

O=[N+]([O-])c1cccc(S(=O)(=O)NNc2ccc(Br)cc2)c1
inactive: [3] 96 % of control | [4] 93 % of control | [8] 89 % of control

c1ccc(Cn2ccnc2)cc1
inactive: dose: 3.12 mg/kg/injection, schedule: Q01DX009 (ip), vehicle: water 106 % of control | dose: 6.25 mg/kg/injection, schedule: Q01DX009 (ip), vehicle: water 117 % of control | dose: 12.5 mg/kg/injection, schedule: Q01DX009 (ip), vehicle: water 107 % of control | dose: 25.0 mg/kg/injection, schedule: Q01DX009 (ip), vehicle: water 104 % of control and 108 % of control | dose: 50.0 mg/kg/injection, schedule: Q01DX009 (ip), vehicle: water 96 % of control | dose: 75.0 mg/kg/injection, schedule: Q01DX001 (ip), vehicle: saline 103 % of control

C=C(C)C(=Nc1ccc(Cl)c(Cl)c1)N(C)C
inactive: dose: 55.0 mg/kg/injection, schedule: Q01DX Z (ip), vehicle: methylcellulose (MC) 98 % of control | dose: 83.0 mg/kg/injection, schedule: Q01DX Z (ip), vehicle: methylcellulose (MC) 93 % of control | dose: 125.0 mg/kg/injection, schedule: Q01DX Z (ip), vehicle: methylcellulose (MC) 93 % of control

CCOC(=O)CC(C)(C)CC(=O)C1CNC2=C(C1)C(=O)CC(C)(C)C2 (centres undefined)
inactive: dose: 100.0 mg/kg/injection, schedule: Q01DX005 (ip), vehicle: Klucel (hydroxypropylcellulose) (HPC) 102 % of control | dose: 100.0 mg/kg/injection, schedule: Q04DX002 (ip), vehicle: Klucel (hydroxypropylcellulose) (HPC) 89 % of control | dose: 200.0 mg/kg/injection, schedule: Q01DX005 (ip), vehicle: Klucel (hydroxypropylcellulose) (HPC) 118 % of control | dose: 200.0 mg/kg/injection, schedule: Q04DX002 (ip), vehicle: Klucel (hydroxypropylcellulose) (HPC) 92 % of control | dose: 400.0 mg/kg/injection, schedule: Q01DX005 (ip), vehicle: Klucel (hydroxypropylcellulose) (HPC) 91 % of control | dose: 400.0 mg/kg/injection, schedule: Q04DX002 (ip), vehicle: Klucel (hydroxypropylcellulose) (HPC) 97 % of control

NC(=O)c1ccccc1NC(=O)Nc1ccc(Cl)cc1
inactive: [2] 98 % of control | [9] 96 % of control | [10] 91 % of control

NOCc1ccc(OCc2ccccc2)cc1
inactive: dose: 100.0 mg/kg/injection, schedule: Q04DX003 (ip), vehicle: acetone 102 % of control | dose: 200.0 mg/kg/injection, schedule: Q04DX003 (ip), vehicle: acetone 95 % of control

CN(C)C(=S)Oc1ccccn1
inactive: dose: 25.0 mg/kg/injection, schedule: Q04DX003 (ip), vehicle: Klucel (hydroxypropylcellulose) (HPC) 106 % of control | dose: 50.0 mg/kg/injection, schedule: Q04DX003 (ip), vehicle: Klucel (hydroxypropylcellulose) (HPC) 104 % of control | [3] 102 % of control and 105 % of control

COc1ccc(N=C=S)cc1N=C=S
inactive: dose: 6.25 mg/kg/injection, schedule: Q01DX009 (ip), vehicle: saline with Tween-80 101 % of control | dose: 12.5 mg/kg/injection, schedule: Q01DX009 (ip), vehicle: saline with Tween-80 103 % of control | dose: 25.0 mg/kg/injection, schedule: Q01DX009 (ip), vehicle: saline with Tween-80 104 % of control

Cc1cccc(C)c1N1C(=O)CCC1=O
inactive: [1] 98 % of control | [2] 96 % of control | [3] 94 % of control | [9] 100 % of control | [4] 97 % of control | [10] 100 % of control | [8] 100 % of control

CN(c1ccccc1)P(=O)(N1CC1)N1CC1
inactive: dose: 4.4 mg/kg/injection, schedule: Q01DX009 (ip), vehicle: carboxymethylcellulose (CMC) 117 % of control | dose: 6.2 mg/kg/injection, schedule: Q01DX001 (ip), vehicle: carboxymethylcellulose (CMC) 111 % of control | dose: 12.5 mg/kg/injection, schedule: Q01DX001 (ip), vehicle: carboxymethylcellulose (CMC) 104 % of control | dose: 15.0 mg/kg/injection, schedule: Q01DX009 (ip), vehicle: carboxymethylcellulose (CMC) 105 % of control | dose: 22.0 mg/kg/injection, schedule: Q01DX001 (ip), vehicle: carboxymethylcellulose (CMC) 123 % of control | dose: 50.0 mg/kg/injection, schedule: Q01DX001 (ip), vehicle: carboxymethylcellulose (CMC) 115 % of control | dose: 75.0 mg/kg/injection, schedule: Q01DX001 (ip), vehicle: carboxymethylcellulose (CMC) 102 % of control
active: dose: 6.6 mg/kg/injection, schedule: Q01DX009 (ip), vehicle: carboxymethylcellulose (CMC) 152 % of control | dose: 33.0 mg/kg/injection, schedule: Q01DX001 (ip), vehicle: carboxymethylcellulose (CMC) 159 % of control

Cc1ccc(-c2c(C)c(-c3ccccc3)c(-c3ccccc3)c(C)c2-c2ccccc2)cc1C
inactive: dose: 100.0 mg/kg/injection, schedule: Q01DX001 (ip), vehicle: saline with Tween-80 104 % of control | dose: 200.0 mg/kg/injection, schedule: Q01DX001 (ip), vehicle: saline with Tween-80 100 % of control | dose: 400.0 mg/kg/injection, schedule: Q01DX001 (ip), vehicle: saline with Tween-80 100 % of control

CC(=O)OCC1OC(n2ncc3c(=S)nc[nH]c32)C(OC(C)=O)C1OC(C)=O (centres undefined)
inactive: dose: 12.5 mg/kg/injection, schedule: Q01DX005 (ip), vehicle: other 98 % of control | dose: 25.0 mg/kg/injection, schedule: Q01DX005 (ip), vehicle: other 95 % of control | dose: 50.0 mg/kg/injection, schedule: Q01DX005 (ip), vehicle: other 104 % of control | dose: 100.0 mg/kg/injection, schedule: Q01DX005 (ip), vehicle: other 97 % of control | dose: 200.0 mg/kg/injection, schedule: Q01DX005 (ip), vehicle: other 93 % of control

CCN(CC)c1ccc(/C=N\N(C)C)cc1
inactive: [1] 97 % of control | [2] 101 % of control | [9] 106 % of control

O=C(COc1cc(Cl)c(Cl)cc1Cl)Nc1ccc(-c2ccccc2)cc1
inactive: dose: 75.0 mg/kg/injection, schedule: Q04DX002 (ip), vehicle: Klucel (hydroxypropylcellulose) (HPC) 95 % of control | dose: 150.0 mg/kg/injection, schedule: Q04DX002 (ip), vehicle: Klucel (hydroxypropylcellulose) (HPC) 103 % of control | dose: 300.0 mg/kg/injection, schedule: Q04DX002 (ip), vehicle: Klucel (hydroxypropylcellulose) (HPC) 98 % of control

O=C1CCCC1C(=O)Nc1cccc2ccccc12 (centres undefined)
inactive: dose: 50.0 mg/kg/injection, schedule: Q01DX001 (ip), vehicle: saline 97 % of control | [5] 103 % of control | [6] 97 % of control | [7] 97 % of control

c1ccc(COc2ccc(Nc3ccccc3)cc2)cc1
inactive: [2] 98 % of control | [3] 106 % of control | [9] 100 % of control | [4] 103 % of control | [10] 102 % of control | [8] 94 % of control

CC(=O)/C=C(\C)NCC(C)N/C(C)=C/C(C)=O (centres undefined)
inactive: [5] 105 % of control | [6] 96 % of control | [7] 99 % of control
